The text below walks through data of US20260200923A1, “HETEROCYCLIC COMPOUNDS TARGETING THE NUDT5 PROTEIN” (Oxford University Innovation Limited, priority 2022, published 2026).

Test [1] concerns MTHFD1^KO cells. The test can be described thus: growth of MTHFD1^KO cells in dialyzed serum media with compound supplementation. The class given is cell-based. Here is the method:
(§1) MTHFD1^KO cells in dialyzed FBS media were treated with a single nucleotide or folic acid metabolite for 72 hours. Cells were then stained with Hoechst, imaged, and counted using an Operetta (Perkin Elmer). For the AMPK activator studies, cells were stained with Hoechst, imaged, and counted using an Opera (Perkin Elmer). Similarly, MTHFD1^K56R cells in dialyzed FBS media were treated with adenosine for 72 hours. Cells were then stained with Hoechst, imaged, and counted using an Operetta (Perkin Elmer).
MTHFD1^KO cells (F5 clone) in dialyzed FBS media were treated with the CeMM compound library (89,228 chemically diverse compounds). Both cell number, using Hoechst staining, and CellTiter-Glo (Promega), an indicator of metabolically active cells, was both used as a readout, depending on the stage of the screen.
Briefly, the screening was divided into the three parts (i) primary screening, (ii) follow-up and (iii) validation. During the primary screen, MTHFD1^KO cells were treated with 10 μM of every compound and CellTiter-Glo (Promega) was used to assess their ability to increase cell growth after 48 hours. From this primary screening, 17 compounds were selected as hits and rescreened in the follow-up part, in which the MTHFD1^KO cells were treated in a six-point dose response for 72 hours to discard any false positives. Finally, in the validation part, MTHFD1^KO cells were treated with 10 compounds in an eight-point dose response curve and the cell numbers were counted by staining with Hoechst, imaging and counting nuclei using the Opera Phenix (Perkin Elmer) and Harmony software (Perkin Elmer).

Test [2] has as its target T1, NUDT14 (Homo sapiens, UniProt O95848).
T1 sequence (O95848 1-222): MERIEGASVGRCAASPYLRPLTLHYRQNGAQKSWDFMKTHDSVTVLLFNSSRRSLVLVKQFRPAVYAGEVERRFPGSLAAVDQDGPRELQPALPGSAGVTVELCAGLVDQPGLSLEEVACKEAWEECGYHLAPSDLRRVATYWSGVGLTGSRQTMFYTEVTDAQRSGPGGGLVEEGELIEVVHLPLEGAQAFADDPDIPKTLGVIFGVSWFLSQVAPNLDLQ
Put plainly: AMP-Glo catalytic assay, NUDT14. As to conditions: 2 nM NUDT14, ADPr substrate, 1 hour, mean±SD; read-out: NUDT14 IC50. The class given is biochemical. Here is the method: To identify alternative X groups, a screening exercise was performed. […] Inhibition activities of the compounds were determined using AMP-Glo system (Promega). The compounds were diluted from 50 μM to 0 μM in a final reaction containing 20 mM Hepes, 100 mM NaCl, 0.5 mM TCEP, 1 mM MgCl2 and 0.1% BSA, pH 7.4. The reactions were performed in 1536 well plate in […] reaction volume with 2 nM of NUDT5 and NUDT14, and […] of ADPr as the substrate. The final DMSO concentration was 0.5% for all reactions. NUDT5 reactions were incubated for 20 minutes while NUDT14 reactions were carried out for 1 hour at room temperature. […] The reactions were further incubated with the 4 μl of Detection solution for 1 hour at room temperature. Luminescence signals were then measured in PHERAstar FSX plate reader. Experiments were done in triplicate sets and data were analysed by GraphPad Prism 9. Data are represented as the mean±SD of three biological experiments: […]

For test [3], the target named is T2, NUDT5 (Homo sapiens, UniProt Q9UKK9). The test can be described thus: NUDT5 degradation by Western blot in HEK293 cells. The class given is cell-based. Set-up: endogenous in cells; host or cells: HEK293 (also CRBN knock-out HEK293 for A13). The method, then:
For Western blots, proteins were separated on polyacrylamide gels with SDS running buffer (50 mM Tris, 380 mM Glycine, 7 mM SDS) and transferred to PVDF membranes. All membranes were then blocked with blocking buffer (5% w/v milk powder, BioRad) in TBST (50 mM Tris (tris(hydroxymethylaminomethane), 150 mM NaCl, 0.05% (v/v) Tween 20, adjusted to pH 7.6) Proteins were probed with antibodies against phospho-AMPK (50081S, 1:2000, Cell Signaling Technologies), AMPK (5832S, 1:2000, Cell Signaling Technologies), PML (ab179466, 1:1000, abeam), PARP8 (NBP213733, 1:1000, Novus Biologicals), ATF2/7 (82870, 1:1000, Cell Signaling Technologies), alpha-Tubulin (ab7291, 1:1000, Abeam), phospho-UBTF (ab182583, 1:1000, abeam), UBTF (HPA006385, 1:1000, Sigma), RBM38 (AV40862, 1:1000, Sigma), or NUDT5 (ab129172, 1:1000, abeam), detected by HRP (horse-radish peroxidase) conjugated donkey anti-rabbit IgG antibody (Pierce) or donkey anti-mouse antibody IgG antibody (Pierce) and visualized with Clarity ECL Western Blotting substrate (BioRad), according to provided protocol.
On the technique in general: A western blot detects proteins with antibodies after separation by electrophoresis.

Test [4] addresses T3, NUDT5-CRBN interaction (Homo sapiens, UniProt Q96SW2+Q9UKK9).
T3 construct: expressed in transfected cells; host or cells: HEK293
The test can be described thus: NanoBRET ternary complex formation (protein-protein interaction) assay. The class given is cell-based. As to conditions: HEK293 cells, 4 h. Here is the method: For NanoBRET protein-protein interaction assay, NanoBRET Nano-Glo Detection System (N1662, Promega) was used according to the manufacturer's instruction. In brief, 220,000 HEK293 cells/ml was seeded in a 6-well plate. After 6 h, N-terminal nanoLuc NUDT5 and Halo-tag CRBN were then transfected into the cells using Fugene HD transfection reagent (E2312, Promega). The transfected HEK293 (220,000 cells/ml) were then replated onto a 384-well plate containing compounds. After 4 h incubation, NanoLuc substrate was added into each well and the signals were measured by PHERAstar Microplate Reader.
Compounds were dispensed in the 384-well plates by using Echo Acoustic Dispenser.
In general terms: Bioluminescence resonance energy transfer reports proximity on the nanometre scale.

For test [5], the target named is T2, NUDT5. The test can be described thus: CRBN knock-out experiment, NUDT5 degradation. The test is classed as cell-based. Set-up: endogenous in cells; host or cells: HEK293 (also CRBN knock-out HEK293 for A13). As to conditions: CRBN knock-out HEK293 cells, 20 h.
Test [6] has as its system MTHFD1^K56R cells. The test can be described thus: growth of MTHFD1^K56R cells in adenosine-containing media. The class given is cell-based. As to conditions: adenosine-containing media, 72 h. The method, then: HAP1 (KBM7-derived, Horizon Discovery, C859), and HAP1 MTHFD1^KO, MTHFD1^K56R, and MTHFD1^K386E cell lines were cultured in Iscove's Modified Dulbecco's Medium (IMDM, Sigma), supplemented with 10% Fetal Bovine Serum (FBS, Sigma) and 1% Penicillin/Streptomycin (P/S, Sigma).
as §1

Test [7] relates to HAP-1 cells. The test can be described thus: 6-thioguanine assay (CellTiter-Glo viability). The class given is cell-based. To be noted: 0.2 μg/ml 6-thioguanine, 72 h; HAP1 (and NB4, FIG. 11). Here is the method:
NB-4 and HAP1 cells (1000 cells/well in 40 uL) were seeded onto a 384-well plate containing compounds. DMSO or 0.2 μg/ml 6-thioguanine (A4882, Sigma-Aldrich) was added into respective wells. After 72 h incubation cell viability was measured by using CellTiter-Glo 2.0 Assay (G9242, Promega). Compounds in the 384-well plates were prepared by using Echo Acoustic Dispenser.

Entries after “also recorded” stand apart in the source; their conditions may differ.

For `Nc1ncnc2c1ncn2[C@@H]1O[C@H](COP(=O)(O)O)[C@@H](O)[C@H]1O` [AMP], in test [1], the “rescue of growth in dialyzed serum” value is listed as “able to rescue the growth”.

The term IC50 denotes the concentration that inhibits the measured activity by half. For `Cn1nc(-c2ccc(Oc3ccccc3)cc2)c2c(N)ncnc21` [Compound 2], the IC50 in test [2] was determined as 604 ± 116 nM.

`Nc1ncnc2[nH]nc(-c3ccc(Oc4ccccc4)cc3)c12` [Compound 3]: the IC50 in test [2] came out at 548 ± 37 nM.

Take `C=CC(=O)N1CCC=C(c2nn(C3CCN(C)CC3)c3ncnc(N)c23)C1` [Compound 5]: in test [2], the half-inhibitory concentration (IC50) was 4270 ± 133 nM.

On to `CN1CCC(n2nc(-c3ccc(NC(=O)CCl)cc3)c3c(N)ncnc32)CC1` [Compound 8], for which the IC50 in test [2] amounted to 377 ± 35 nM.

For orientation: Dmax means the largest share of the target that was removed. Read a low Dmax as a partial loss of target. Consider `Cn1c(=O)c2c(nc(N3CCN(C(=O)CCOCCOCCNc4cccc5c4C(=O)N(C4CCC(=O)NC4=O)C5=O)CC3)n2Cc2nnc(-c3ccc(Cl)c(Cl)c3)o2)n(C)c1=O` (stereo not shown) [Compound 068, 7-((5-(3,4-dichlorophenyl)-1,3,4-oxadiazol-2-yl)methyl)-8-(4-(3-(2-(2-((2-(2,6-dioxopiperidin-3-yl)-1,3-dioxoisoindolin-4-yl)amino)ethoxy)ethoxy)propanoyl)piperazin-1-yl)-1,3-dimethyl-3,7-dihydro-1H-purine-2,6-dione], for which, in test [3], the “NUDT5 degradation at 100 nM, 20 h (%)” value came to 52%. In addition, the Dmax in test [3] (HEK293, NUDT5 degradation) was 50%.

For `Cn1c(=O)c2c(nc(N3CCN(CC4CCN(c5ccc6c(c5)C(=O)N(C5CCC(=O)NC5=O)C6=O)CC4)CC3)n2Cc2nnc(-c3ccc(Cl)c(Cl)c3)o2)n(C)c1=O` (stereo not shown) [Compound 070, 7-((5-(3,4-dichlorophenyl)-1,3,4-oxadiazol-2-yl)methyl)-8-(4-((1-(2-(2,6-dioxopiperidin-3-yl)-1,3-dioxoisoindolin-5-yl)piperidin-4-yl)methyl)piperazin-1-yl)-1,3-dimethyl-3,7-dihydro-1H-purine-2,6-dione], the “ternary complex formation between NUDT5 and CRBN” value in test [4] is given as “induced the ternary complex”. Besides, the “NUDT5 degradation at 100 nM, 20 h (%)” value in test [3] came out at 39%. Further, the “NUDT5 degradation” value in test [3] (Western blot, FIG. 12A) is “reasonable NUDT5 degrader”.

Consider `Cn1c(=O)c2c(nc(N3CCN(CCC4CCN(c5ccc6c(c5)C(=O)N(C5CCC(=O)NC5=O)C6=O)CC4)CC3)n2Cc2nnc(-c3ccc(Cl)c(Cl)c3)o2)n(C)c1=O` (stereo not shown) [Compound 102, 7-((5-(3,4-dichlorophenyl)-1,3,4-oxadiazol-2-yl)methyl)-8-(4-(2-(1-(2-(2,6-dioxopiperidin-3-yl)-1,3-dioxoisoindolin-5-yl)piperidin-4-yl)ethyl)piperazin-1-yl)-1,3-dimethyl-3,7-dihydro-1H-purine-2,6-dione], for which the “NUDT5 degradation at 100 nM, 20 h (%)” value in test [3] is 46%.

`Cn1c(=O)c2c(nc(N3CCN(C(=O)CCOCCOCCOCCNc4cccc5c4C(=O)N(C4CCC(=O)NC4=O)C5=O)CC3)n2Cc2nnc(-c3ccc(Cl)c(Cl)c3)o2)n(C)c1=O` (stereo not shown) [Compound 127, 7-((5-(3,4-dichlorophenyl)-1,3,4-oxadiazol-2-yl)methyl)-8-(4-(3-(2-(2-(2-((2-(2,6-dioxopiperidin-3-yl)-1,3-dioxoisoindolin-4-yl)amino)ethoxy)ethoxy)ethoxy)propanoyl)piperazin-1-yl)-1,3-dimethyl-3,7-dihydro-1H-purine-2,6-dione]: the “NUDT5 degradation at 100 nM, 20 h (%)” value in test [3] came to 76%. Moreover, the “dependence of degradation on E3 ligase” value in test [5] was “E3-ligase-dependant”.

With `Cn1c(=O)c2c(nc(N3CCN(C(=O)CCOCCOCCOCCOCCNc4cccc5c4C(=O)N(C4CCC(=O)NC4=O)C5=O)CC3)n2Cc2nnc(-c3ccc(Cl)c(Cl)c3)o2)n(C)c1=O` (stereo not shown) [Compound 130, 7-((5-(3,4-dichlorophenyl)-1,3,4-oxadiazol-2-yl)methyl)-8-(4-(1-((2-(2,6-dioxopiperidin-3-yl)-1,3-dioxoisoindolin-4-yl)amino)-3,6,9,12-tetraoxapentadecan-15-oyl)piperazin-1-yl)-1,3-dimethyl-3,7-dihydro-1H-purine-2,6-dione], in test [3], the “NUDT5 degradation at 100 nM, 20 h (%)” value turned out to be 81%. Also, the “dependence of degradation on E3 ligase” value in test [5] is listed as “E3-ligase-dependant”.

`Cc1cc2nc3c(=O)[nH]c(=O)nc-3n(C[C@H](O)[C@H](O)[C@H](O)COP(=O)(O)OP(=O)(O)OC[C@H]3O[C@@H](n4cnc5c(N)ncnc54)[C@H](O)[C@@H]3O)c2cc1C` [FAD]: the “rescue of growth in dialyzed serum” value in test [1] is “able to rescue the growth”.

For `NC(=O)C1=CN([C@@H]2O[C@H](COP(=O)(O)OP(=O)(O)OC[C@H]3O[C@@H](n4cnc5c(N)ncnc54)[C@H](O)[C@@H]3O)[C@@H](O)[C@H]2O)C=CC1` [NADH], the “rescue of growth in dialyzed serum” value in test [1] is “able to rescue the growth”.

Take `NC(=O)c1ccc[n+]([C@@H]2O[C@H](COP(=O)([O-])OP(=O)(O)OC[C@H]3O[C@@H](n4cnc5c(N)ncnc54)[C@H](O)[C@@H]3O)[C@@H](O)[C@H]2O)c1` [NAD]: in test [1], the “rescue of growth in dialyzed serum” value was “able to rescue the growth”.

On to `C[S+](CC[C@H](N)C(=O)[O-])C[C@H]1O[C@@H](n2cnc3c(N)ncnc32)[C@H](O)[C@@H]1O` (stereo partly shown) [SAM], for which the “rescue of growth in dialyzed serum” value in test [1] is recorded as “able to rescue the growth”.

Turning to `Cn1c(=O)c2c(nc(N3CCNCC3)n2Cc2nnc(-c3ccc(Cl)c(Cl)c3)o2)n(C)c1=O` [TH5427, reference compound], the “effect on adenosine toxicity / viability” value in test [6] is recorded as “did not affect the viability”. The “rescue of 6-TG toxicity” value in test [7] is listed as “did not show a rescue; also recorded: neither the negative control nor TH5427 gave any significant effects”.

With `O=c1[nH]cnc2nc[nH]c12` [hypoxanthine], in test [1], the “rescue of growth in dialyzed serum” value is “able to rescue the growth”.
